Laboratory results taken from a melting point compilation (Tetko et al.; mined from patent text by program, amines drawn as free bases though some values may be those of a salt).

Structure (SMILES)	melting point [°C]
O=C(NCc1c(Cl)cccc1Oc1ccccc1)C1CCc2[nH]cnc2C1 (stereo unspecified)	197 to 199
CC12C=CC(=O)C=C1C(N=[N+]=[N-])CC1C2CCC2(C)C(=O)CCC12 (stereo unspecified)	168 to 170
CCN(CC)C(=O)/C(=C/C=C/c1cc2ccccc2[nH]1)OC	141 to 143
Nc1sc2c(c1C(=O)c1ccco1)CCN(Cc1ccccc1)C2	112 to 117
O=C(Cc1cc(OC(=O)c2ccccc2)no1)OC(c1ccccc1)c1ccccc1	95 to 96
CN1C(=O)c2cnc(-c3ccccc3)nc2N(C(=O)CN2CCCC2)c2ccccc21	196
CC(=NO)C(C)(C)NCC(C)CNC(C)(C)C(Cn1ccnc1[N+](=O)[O-])=NO (stereo unspecified)	167 to 168
COc1ccc2c(C(=O)c3ccc(OC4CCCCC4n4ccnc4)cc3)c(-c3ccc(OCCN4CCCC4)cc3)sc2c1 (stereo unspecified)	68 to 78
Cc1ccc(S(=O)(=O)Nc2ccc(F)cc2)cc1	78 to 79.5
Cc1csc(C(=O)c2[nH]c3ccc(Cl)cc3c2CC(=O)O)n1	218 to 220
COc1ccc(-n2c(CC(=O)O)c(C(=O)O)c3cc(Oc4ccc(C(F)(F)F)cc4)ccc32)cc1	248 to 250
CC(=O)NC[C@H]1CN(c2ccc(-n3nccc3-c3ccc(Br)cn3)c(F)c2)C(=O)O1	92.7 to 95.4
COC(=O)c1ccc2c(c1)CN(c1c(F)cc3c(=O)c(C(=O)O)cn(-c4ccc(F)cc4F)c3c1F)C2	248 to 251
CN1C(=O)CC[C@]2(C)c3ccc(-c4cc(Cl)cc(Cl)c4)cc3CC[C@@H]12	172
FC(F)(F)c1ccc(-c2ncc(-c3cccs3)s2)cc1	154 to 155
O=C(NCc1ccccn1)c1ccc2cnccc2n1	123 to 125
N#Cc1ccc(N(Cc2ccc(OCc3ccccc3)cc2)n2cncn2)cc1-c1ccccc1	112 to 113
CC(C)c1cc(CCC(=O)O)n(Cc2ccc(Cl)cc2Cl)n1	105 to 108
COc1ccc(Oc2ccccc2Cl)cc1C=O	65 to 66
CSc1nc(Cl)nc(Cl)n1	57 to 59
CCOC(=O)Cn1c2c([nH]c(=O)c1=O)CCC1=C2C=C(n2ccc(C(=O)O)c2)CC1	282
CC1CC(=O)NN=C1c1ccc2c(c1)N(C(C)C)C(=O)C(C)O2 (stereo unspecified)	204 to 205
CN1C(=O)CSc2ccc(Cl)cc21	119 to 121
CCOC(=O)c1c2ccc(Cl)cc2c(-c2ccccc2)n1CCN	84 to 86
Cc1ccccc1-c1ccc(C(=O)N2Cc3ccc(C(=O)NCc4ccccc4)n3Cc3ccccc32)cc1C	138 to 141
Cc1ccc(-c2ccc3c(c2)C=C(CNc2ccc(CN(C)C4CCOCC4)cc2)CCO3)cc1	158 to 160

Structure (SMILES)	melting point [°C]
COc1cc2ncc(O[C@H]3CC[C@@H](OC(C)=O)CC3)nc2cc1OC	150 to 152
COC(=O)c1cc(C(=O)NN2CCOCC2)c2cc(Cc3ccc(F)cc3)cnc2c1O	> 250
COc1cc2c(cc1C(F)(F)F)N(C(=O)Nc1ccccc1CCN(C)C)CC2	166 to 168
C[C@H](N[C@@H]1CNC(=O)C12CC2)c1ccccc1	107 to 110
O=[N+]([O-])c1ccc2nc(Cl)c(Cc3ccccc3)cc2c1	159 to 161
CCCC(=O)Nc1n[nH]c2cc(Cl)c(-c3ccncc3)cc12	260
c1ccc(CSc2ccccc2Cn2cncn2)cc1	65 to 68
COc1ccc(-c2ccc(OC)cc2[N+](=O)[O-])cc1	122 to 124
COc1ccc(CC(=O)O)cc1C(=O)NCc1ccc(C(F)(F)F)cc1	167 to 168
CCCNC(=O)ON(C(=O)NCCC)C(=O)C1CC1	76 to 78
CCOC(=O)C1CN(S(C)(=O)=O)CCN1CC=CC(=O)Nc1cc2c(Nc3ccc(F)c(Cl)c3)ncnc2cc1OCC1CC1 (stereo unspecified)	170 to 173
N#CC1Cc2ccc(N)cc2C1 (stereo unspecified)	73 to 76
C=C(c1ccc(Br)cc1)c1ccc(N(C)C)cc1	126 to 127
CCCN(CCC)C(C)(C)CC(C)(C)C	43 to 45
CC(C)(C#N)c1cc(CO)cc(C(C)(C)C#N)c1	151 to 153
Cn1c(CNC2CCS(=O)(=O)CC2)cc2cc(NC(=O)c3ccc(OCC4CC4)cc3)ccc21	200 to 201
CCn1cc(C(=O)O)c(=O)c2cc(F)c(-c3csc(CNC)n3)c(OC)c21	164 to 166
COCCn1c(C)c(C(=O)c2c(Cl)c(Cl)c(Cl)c(Cl)c2C(=O)O)c2ccccc21	182 to 184
CCCn1c(=O)n2c(C)nnc2c2c1ncn2C	192 to 194
O=C(NC(=O)c1c(F)cccc1Cl)Nc1cnc(Oc2ccc(Cl)c3c2CCCC3)c(Cl)c1	244
OCc1cc(OCc2ccc3ccccc3n2)no1	111 to 112
CCOC(=O)c1ccc2n1Cc1ccccc1N1CCN(C)CC21 (stereo unspecified)	128 to 130
Cc1cc(-c2ccc(OCc3ccncc3)cc2)cc2ccc(=O)[nH]c12	270 to 274
CS(=O)(=O)c1ccc(Br)cc1[N+](=O)[O-]	175 to 177
COc1cc(-c2ccc(F)cc2)nc(-c2ccccn2)n1	97 to 98
CN1C(=O)CCC2(C)c3ccc(Sc4ccccc4Cl)cc3CCC12 (single isomer, unassigned; (+))	123 to 125

Structure (SMILES)	melting point [°C]
Cc1cc(OC(=O)c2ccccc2)c2ccccc2c1OCc1ccccc1	179 to 180
Clc1nnccc1-c1c(-c2ccccc2)nn2ccccc12	208 to 210
O=c1cc(-c2ccccc2)oc2ccc(OCCCCCCCN3CCC(O)CC3)cc12	135 to 136
O=c1ccsc2c3ccccc3n(-c3ccccc3[N+](=O)[O-])c12	207 to 208
COC(=O)c1ccc(S(C)(=O)=O)c(C(=O)NN)c1Cl	85 to 95
CCCCC(=N)NC(=O)Nc1ccccc1	156
O=[N+]([O-])c1cccc(CN2CCOCC2)c1	48 to 50
CC(=O)Nc1cc(C(F)(F)F)ccc1S(=O)CC#N (stereo unspecified)	149 to 151
Nc1ncc(Sc2ccc(C(F)(F)F)cn2)s1	135 to 138
Cc1cc2c(cc1C)C(=O)c1c(N)cccc1C2=O	222
CCn1ncc2c(NCc3ccccc3)c3ccccc3nc21	130 to 132
C(=C\c1nc2ccccc2n1-c1ccccn1)/c1ccsc1	136
CC(=O)c1ccc(-c2nc(O)c(C)s2)cc1	219 to 220
N#Cc1cc(-c2ccoc2)c2ccc(COc3cc(F)cc(-c4cccs4)c3)cc2n1	181 to 183
CC(C)c1ccc2nc3ccc(C(=O)NCCCCc4cccnc4)cc3c(=O)n2c1	247 to 249
C=Cc1cncc(-c2cc(NC(=O)Cc3ccc4ccccc4c3)n[nH]2)c1	218 to 220
O=C(O)CCc1ccccc1CNC(=O)C1Cc2ccccc2N1S(=O)(=O)c1ccc(-c2cccc(C(F)(F)F)c2)cc1 (stereo unspecified)	94
CC(C)Oc1nn(CCO)cc1C(=O)NCc1ccc(Cl)cc1Cl	122 to 123
ClCc1cn2cccc(OCc3ccccc3)c2n1	163
CCOc1cc(N(C)C)c(Cl)cc1C(=O)NC1CCN(Cc2ccccc2)C1 (stereo unspecified)	112 to 113
CC(F)(F)c1cccc(Oc2ccc(C3CCCN4CCS(=O)(=O)N=C34)cc2)c1 (stereo unspecified)	117 to 118
CC1(CN2CCC(n3c(=O)[nH]c4ccccc43)CC2)OCc2ccccc2-n2cccc21 (stereo unspecified)	199 to 201
COC(=O)c1scc(C)c1-n1cccc1	76
O=C(Nc1nccs1)c1c(CO)nc2c(C(F)(F)F)cccc2c1O	280
CC(C)(CNC(=O)c1ncc[nH]1)c1ccc(C(=O)Nc2cn3cc(C(F)(F)F)ccc3n2)cc1	292 to 293
CCCC(=O)C(=O)C(CC1CCCCC1)NC(=O)C(CC(C)C)NC(=O)C(Cc1ccccc1)NC(=O)C1CCCC1 (stereo unspecified)	152 to 161

Structure (SMILES)	melting point [°C]
COC1(c2ccc(Sc3ccc4c(c3)CCC(=S)N4C)s2)CCOCC1	100 to 102
COC(=O)c1ccccc1S(=O)(=O)NC(=O)n1nc(Oc2ccccc2)n(C)c1=O	161
CN1CCN(c2ccc3cn[nH]c3n2)CC1	196 to 197
CN(C(=O)c1cc(C(F)(F)F)cc(C(F)(F)F)c1)C(CC(=O)O)Cc1ccc2ccccc2c1 (stereo unspecified)	128 to 130
CCN(CC)CCCN1c2cc(C)c(C)cc2N(C)C(=O)c2c(C)cc(C)nc21	104 to 106
CCCC(=O)c1ccc(N(CCO)CCO)cc1	72 to 75
CCCCOc1cc2c(c3c1OC(C)(C)C3)C(c1ccccc1)=NC(C)(C)C2	99 to 101
NC(CN1C(=O)c2ccccc2C1=O)=NO	192 to 195
CCOC(=O)C(C#N)Cc1cc(OC)c(OC)cc1C (stereo unspecified)	39 to 40
CC(O)CNc1c(Br)cnc2ccccc12 (stereo unspecified)	82 to 83
CC1(C)OC(=S)Nc2ccc(-c3cc(Br)cc(OC(F)(F)F)c3)cc21	192 to 193
CCOC(=O)CCc1cc(OC)ccc1C(=O)CCCNC(C)=O	59 to 61
O=C1N=NC(=O)c2ccccc21	257 to 259
CN1Cc2c(cc3ccc4c(c3c2-c2ccc3c(c2)OCO3)OCO4)C1=O	234 to 236
Nc1nc(Cl)cc(NCc2ccccc2F)n1	130 to 133
CCc1c(C(F)(F)F)noc1NS(=O)(=O)c1ccccc1	105 to 106
CNS(=O)(=O)OCCOc1ccc(-n2ccnc2)cc1	85 to 88
O=C(NCO)c1cncc([N+](=O)[O-])c1	145 to 146
CCCN(CCC)Cc1coc(-c2ncn3c2CN(C)C(=O)c2sccc2-3)n1	110 to 111
CC(C)(C)c1cc(C2SC(CC(=O)O)C(=O)N2CCCO)cc(C(C)(C)C)c1O (stereo unspecified)	227 to 228
CN1CCC(N2C(=O)CN=C(c3ccccc3)c3ccccc32)CC1	158 to 159
O=C(O)c1ccc(CCOCCCCCCBr)cc1	85 to 87.5
COC1(c2cc(F)cc(S(=O)(=O)c3ccc4c(c3)CC/C4=N\O)c2)CCOCC1	225 to 226
